Data published in patent publication EP4818192A1, “USE OF GRP78-LIKE PEPTIDES” (priority 2023, dated 2026).
Ends that are not written are not given here.

Tested on: periodontal ligament cells (rPDL)

Row | cell permeability | Sequence
1 | high cell permeability | MEHFIKLYKKKTGKDVRK [SEQ ID NO: 4, MEHFIKLYKKKTGKDVRK]
2 | high cell permeability | MVLTKMKETAEAYLGKKVTH [SEQ ID NO: 3]
3 | high cell permeability | TFAPEEISAMVLTK [SEQ ID NO: 1, TFAPEEISAMVLTK]
